From paper PMC4880283, “Crystal Structures of Putative Sugar Kinases from Synechococcus Elongatus PCC 7942 and Arabidopsis Thaliana” (PLoS ONE, 2016)

Assays:
[1] = molecular target: T1, SePSK (Synechococcus elongatus, UniProt Q31KC7); test: X-ray crystal structure, […] A (soak); type: binding; settings: crystal soaked in 10 mM AMP-PNP, 20 mM MgCl2; ATP site in domain II
T1 construct: gene PSK; full length (426 aa), pET28-a (Nco I/Xho I), C-terminal His6 tag kept, E. coli BL21(DE3)

[2] = molecular target: T2, AtXK-1 (Arabidopsis thaliana, UniProt Q8L794); test: X-ray crystal structure (soak); type: binding; settings: crystal soaked in 10 mM AMP-PNP, 20 mM MgCl2; ATP site in domain II
T2 construct: gene XK1; mature form (436 aa) without chloroplast transit peptide; forward primer encodes VMSGNKGT; pMCSG7, N-terminal His6 removed by TEV protease, E. coli BL21(DE3)

[3] = molecular target: T2, AtXK-1; test: ADP-Glo kinase assay; type: biochemical; settings: 100 uM ATP, no sugar, 1 mM MgCl2, 20 mM HEPES pH 7.4, 298 K
[4] = molecular target: T1, SePSK; test: ADP-Glo kinase assay; type: biochemical; settings: 100 uM ATP, no sugar, 1 mM MgCl2, 20 mM HEPES pH 7.4, 298 K
[5] = molecular target: T3, SePSK (Synechococcus elongatus, UniProt Q31KC7, D8A); test: surface plasmon resonance (single-cycle kinetics, CM5); type: binding; settings: rate constant (off-rate), not an equilibrium Kd; 1:1 Langmuir fit; 20 mM HEPES pH 7.5, 100 mM NaCl; 298 K
T3 construct: gene PSK; full length (426 aa), pET28-a (Nco I/Xho I), C-terminal His6 tag kept, E. coli BL21(DE3)

[6] = molecular target: T4, SePSK (Synechococcus elongatus, UniProt Q31KC7, T11A); test: ADP-Glo kinase assay; type: biochemical; settings: 5 mM D-ribulose, 100 uM ATP, 1 mM MgCl2, 20 mM HEPES pH 7.4, 298 K; activity much lower than wild type
T4 construct: gene PSK; full length (426 aa), pET28-a (Nco I/Xho I), C-terminal His6 tag kept, E. coli BL21(DE3)

[7] = molecular target: T5, SePSK (Synechococcus elongatus, UniProt Q31KC7, D221A); test: ADP-Glo kinase assay; type: biochemical; settings: 5 mM D-ribulose, 100 uM ATP, 1 mM MgCl2, 20 mM HEPES pH 7.4, 298 K; activity much lower than wild type
T5 construct: gene PSK; full length (426 aa), pET28-a (Nco I/Xho I), C-terminal His6 tag kept, E. coli BL21(DE3)

[8] = molecular target: T3, SePSK; test: ADP-Glo kinase assay; type: biochemical; settings: 5 mM D-ribulose, 100 uM ATP, 1 mM MgCl2, 20 mM HEPES pH 7.4, 298 K; activity much lower than wild type

T1 sequence (Q31KC7 whole entry, the tested form may be a part): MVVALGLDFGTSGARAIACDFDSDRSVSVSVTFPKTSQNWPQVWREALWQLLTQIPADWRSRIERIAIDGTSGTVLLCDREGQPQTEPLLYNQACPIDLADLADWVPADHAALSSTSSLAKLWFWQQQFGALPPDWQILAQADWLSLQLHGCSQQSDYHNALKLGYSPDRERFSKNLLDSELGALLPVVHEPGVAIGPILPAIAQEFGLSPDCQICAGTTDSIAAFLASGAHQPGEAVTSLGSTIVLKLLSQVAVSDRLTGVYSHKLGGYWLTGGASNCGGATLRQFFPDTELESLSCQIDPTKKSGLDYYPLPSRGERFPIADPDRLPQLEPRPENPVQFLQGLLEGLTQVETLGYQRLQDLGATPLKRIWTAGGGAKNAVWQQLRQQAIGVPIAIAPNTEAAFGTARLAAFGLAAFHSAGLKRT
T2 sequence (Q8L794 43-478): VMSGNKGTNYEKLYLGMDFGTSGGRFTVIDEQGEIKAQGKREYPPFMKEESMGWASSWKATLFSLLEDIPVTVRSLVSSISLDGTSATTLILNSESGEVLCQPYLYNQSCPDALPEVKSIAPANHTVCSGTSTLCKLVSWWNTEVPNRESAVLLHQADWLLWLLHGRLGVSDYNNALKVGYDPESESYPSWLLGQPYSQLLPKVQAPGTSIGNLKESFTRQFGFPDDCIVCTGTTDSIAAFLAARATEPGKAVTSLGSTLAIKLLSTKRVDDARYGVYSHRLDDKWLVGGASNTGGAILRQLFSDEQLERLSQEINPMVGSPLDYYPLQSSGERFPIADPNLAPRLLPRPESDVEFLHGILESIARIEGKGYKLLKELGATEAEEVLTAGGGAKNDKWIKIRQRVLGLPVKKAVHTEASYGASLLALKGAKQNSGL
T3 sequence (Q31KC7 whole entry D8A): as the sequence (Q31KC7 whole entry, the tested form may be a part) above, with D8A counted along it
T4 sequence (Q31KC7 whole entry T11A): as the sequence (Q31KC7 whole entry, the tested form may be a part) above, with T11A counted along it
T5 sequence (Q31KC7 whole entry D221A): as the sequence (Q31KC7 whole entry, the tested form may be a part) above, with D221A counted along it

## Nc1ncnc2c1ncn2[C@@H]1O[C@H](COP(=O)(O)OP(=O)(O)NP(=O)(O)O)[C@@H](O)[C@H]1O [AMP-PNP]
[1]
  X-ray crystal structure, 2.3 A (soak): one SePSK protein molecule is in an asymmetric unit with one AMP-PNP molecule
[2]
  X-ray crystal structure (soak): soaked the crystals of apo-SePSK and apo-AtXK-1 into the reservoir adding AMP-PNP

## Nc1ncnc2c1ncn2[C@@H]1O[C@H](COP(=O)(O)OP(=O)(O)OP(=O)(O)O)[C@@H](O)[C@H]1O [ATP]
[3]
  ADP-Glo kinase assay: both SePSK and AtXK-1 exhibited ATP hydrolysis activity
[4]
  ADP-Glo kinase assay: both SePSK and AtXK-1 exhibited ATP hydrolysis activity

## O=C(CO)[C@H](O)[C@H](O)CO [D-ribulose]
[5]
  Dissociation rate constant (koff): 9 ms^-1
[6]
  ADP-Glo kinase assay: all of these mutants exhibit much lower activity of ATP hydrolysis after adding D-ribulose
[7]
  ADP-Glo kinase assay: all of these mutants exhibit much lower activity of ATP hydrolysis after adding D-ribulose
[8]
  ADP-Glo kinase assay: all of these mutants exhibit much lower activity of ATP hydrolysis after adding D-ribulose
